In brackets after ≈: the same amount, converted by molar mass.
Key:
[1] = system: Trypanosoma cruzi (Tulahuan-LACZ amstigotes in PEM); test: In vitro drug activity assay, protozoon A; type: cell-based; conditions: amastigotes in murine peritoneal macrophages, 3 days
Procedure: (§1) In vitro activity of selected compounds of the invention against different protozoa was assessed as follows.
Murine (CD1) peritoneal macrophages were harvested 24 hours after starch induction and dispensed into 96-well plates at a concentration of 4×10^5 mL. After 24 hours, the cells were infected with Trypanosoma cruzi Tulahuan LAC-Z amastigotes (grown and cultured according to Buckner et al., Infection and Immunity 1999, 67(1): 403-409). 24 hours later, the infected cells were exposed to the test compounds (compounds of the invention as well as known prior art compounds) for 3 days and 50 μL of 500 μM CPRG-1% Nonidet P-40 was added to each well. The plates were read after 2 to 5 hours at 570 nm (Buckner et al., Antimicrobial Agents and Chemotherapy 1996, 40(11): 2592-2597). ED50 values were calculated with Msxlfit (IDBS).
(§2) The following protozoa were assessed: • A) Trypanosoma cruzi (Tulahuan-LACZ amstigotes in PEM, Lorente S O et al., Antimicrobial agents and chemotherapy 2004, 48(8): 2937-2950; Buckner et al., Infection and Immunity 1999, 67(1): 403-409; Buckner et al., Antimicrobial Agents and Chemotherapy 1996, 40(11): 2592-2597) • B) Trypanosoma brucei rhodesiense (strain STIB900, Lorente S O et al., Antimicrobial agents and chemotherapy 2004, 48(8): 2937-2950; Habtemariam S, BMC Pharmacology 2003, 3:6) • C) Plasmodium falciparum (strain K1, Korsinczky M et al., Antimicrobial agents and chemotherapy 2000, 44(8): 2100-2108; Thaitong S and Beale G H, Trans. R. Soc. Trop. Med. Hyg. 1981, 75: 271-273; Trager W and Jensen J B, Science 1976, 193: 673-675) • D) Plasmodium faiciparum (strain 3D7, Mu et al., PLoS Biology 2005, 3(10): e335)

[2] = system: Cryptococcus neoformans H99; test: Anti-fungal broth microdilution (MIC), fungus I; type: cell-based; conditions: yeast protocol, more than 80% inhibition, 48 h
Procedure: (§3) Anti-fungal activity of selected compounds of the invention was assessed by means of anti-fungal susceptibility tests as follows.
(§4) The antifungal activities of the compounds of the invention against different fungi were measured according to standard broth microdilution methods of the US National Committee for Clinical Laboratory standards (NCCLS) for yeasts (NCCLS document M27-A, 1997) and filamentous fungi (NCCLS document M38-A, 2002).
(§5) Stock solutions of compounds of the invention were freshly prepared on the days of experiments equal to 1.28 mg/10 ml media. Serial dilutions were performed to achieve the following testing concentrations: 64 μg/ml, 32 μg/ml, 16 μg/ml, 8 μg/ml, 4 μg/ml, 2 μg/ml, 1 μg/ml, 0.5 μg/ml, 0.25 μg/ml and 0.125 μg/ml.
(§6) An inoculum of 10^6 CFU/ml of the fungi strain was prepared in the appropriate medium and transferred to test tubes for incubation.
(§7) The method is used to determine the minimum inhibitory concentrations (MIC) of drugs on fungi strains. […] For the filamentous fungi protocol, MIC determination took place after 48 to 72 h of culture at 35° C. and was defined at that concentration which produced more than 50% visible growth inhibition.

[3] = system: Cryptococcus gattii ATCC 32608; test: Anti-fungal broth microdilution (MIC), fungus J; type: cell-based; conditions: yeast protocol, more than 80% inhibition, 48 h
Procedure: as §3, §4, §5, §6, §7

[4] = system: Candida parapsilosis ATCC 22019; test: Anti-fungal broth microdilution (MIC), fungus G; type: cell-based; conditions: yeast protocol, more than 80% inhibition, 48 h
Procedure: as §3, §4, §5, §6, §7

[5] = system: Cryptococcus neoformans ATCC 90112; test: Anti-fungal broth microdilution (MIC), fungus H; type: cell-based; conditions: yeast protocol, more than 80% inhibition, 48 h
Procedure: as §3, §4, §5, §6, §7

[6] = system: Aspergillus fumigatus 040-200167; test: Anti-fungal broth microdilution (MIC), fungus C; type: cell-based; conditions: Aspergillus fumigatus, 040200167; filamentous protocol, more than 50% growth inhibition, 48 to 72 h
Procedure: as §3, §4, §5, §6, §7

[7] = system: Plasmodium falciparum (strain K1); test: In vitro drug activity assay, protozoon C; type: cell-based; conditions: strain K1, 3[H]-hypoxanthine method
Procedure: as §1
(§8) Plasmodium falciparum strain K1 and strain 3D7 parasites were cultured according to Trager W and Jensen J B (Science 1976, 193: 673-675). In vitro drug susceptibility assays with the test compounds were carried out according to Korsinczky M et al. (Antimicrobial agents and chemotherapy 2000, 44(8): 2100-2108) and Fivelman Q L et al. (Antimicrobial agents and chemotherapy 2004, 48(11): 4097-4102) using a ^3[H]-hypoxanthine radioisotope method. ED50 values were calculated with Msxlfit (IDBS).
as §2

[8] = system: Aspergillus fumigatus 322-384; test: Anti-fungal broth microdilution (MIC), fungus B; type: cell-based; conditions: Aspergillus fumigatus, 322384; filamentous protocol, more than 50% growth inhibition, 48 to 72 h
Procedure: as §3, §4, §5, §6, §7

[9] = system: Trypanosoma brucei rhodesiense (strain STIB900); test: In vitro drug activity assay, protozoon B; type: cell-based; conditions: bloodstream form trypomastigotes, 72 hours, Alamar Blue
Procedure: as §1
Trypanosoma brucei rhodesiense STIB900 bloodstream form trypomastigotes were maintained in HMI-18 medium (Hirumi H, Hirumi K, J Parasitol. 1989, 75(6):985-989) with 15% heat-inactivated fetal calf serum at 37° C., 5% CO2, humidified atmosphere. Trypomastigotes were washed and resuspended in fresh medium at a concentration of 2×10^5 mL. Test compounds were given to the trypomastigotes and plates were incubated for 72 hours at 37° C., 5% CO2, humidified atmosphere. At 72 hours the plates were assessed microscopically before Alamar Blue was added (Raz et al., Acta Trop. 1997, 68: 139-147). Plates were read after 5 to 6 hours at EX/EM 530/585 nm with a filter cutoff at 550 nm. ED50 values were calculated with Msxlfit (IDBS).
as §2

[10] = system: Plasmodium faiciparum (strain 3D7); test: In vitro drug activity assay, protozoon D; type: cell-based, Plasmodium falciparum; conditions: strain 3D7, 3[H]-hypoxanthine method
Procedure: as §1, §8, §2

[11] = system: Aspergillus fumigatus ATCC 204305; test: Anti-fungal broth microdilution (MIC), fungus A; type: cell-based; conditions: Aspergillus fumigatus, ATCC204305; filamentous protocol, more than 50% growth inhibition, 48 to 72 h
Procedure: as §3, §4, §5, §6, §7

[12] = system: Candida albicans ATCC 90028; test: Anti-fungal broth microdilution (MIC), fungus E; type: cell-based; conditions: yeast protocol, more than 80% inhibition, 48 h
Procedure: as §3, §4, §5, §6, §7

[13] = system: Candida albicans ATCC 10231; test: Anti-fungal broth microdilution (MIC), fungus D; type: cell-based; conditions: yeast protocol, more than 80% inhibition, 48 h
Procedure: as §3, §4, §5, §6, §7

[14] = system: Candida albicans TS3; test: Anti-fungal broth microdilution (MIC), fungus F; type: cell-based; conditions: yeast protocol, more than 80% inhibition, 48 h
Procedure: as §3, §4, §5, §6, §7

[15] = system: PC3 (human prostate carcinoma) cells; test: XTT cytotoxicity assay, PC3 cells; type: cell-based; conditions: Homo sapiens, PC-3; 31.6 μM, second set of experiments; read-out: PC3 % INH [31.6 μM]
How it was run: (§9)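 Cells recovered 24 h after plating, then exposed to compounds for 48 h at 37 °C; one set used 10 semi-log concentrations from 100 μM, another 31.6 μM final for PC3 and RKOp21. XTT-PMS added for 3 h, formazan absorbance at 490 nm versus untreated cells; IC50 from inhibition curves.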

[16] = system: SKOV-3 (human ovary adenocarcinoma) cells; test: XTT cytotoxicity assay, SKOV-3 cells; type: cell-based; conditions: Homo sapiens, SK-OV-3, second set of experiments, read-out: SKOV-3 % INH [100 μM]
Procedure: On the first day of the experiment cells were harvested from exponential phase cultures by trypsination, counted and plated into 96 well flat-bottom micro titer plates depending on the cell line as listed below: [table] After a 24 h recovery to allow the cells to resume exponential growth, the test compounds were diluted immediately prior to use and transferred in 25 μl volume to the wells. Following 2 days of continuous drug exposure 50 μl of freshly prepared XTT-PMS solution {2% 0.386 mg/ml PMS (N-Methyl Dibenzopyrazine Methylsulphate; Sigma, Cat. No. […] Serva, Cat. No. 38450) in RPMI 1640 medium without phenol red} was added to the wells. To measure the proportion of living cells, the cells were incubated for 3 h with XTT-PMS reagent at 37° C., 5% CO2, humidified atmosphere allowing to form the formazan salt. […] Inhibition curves were generated and IC50 values calculated by using GraphPad Prism.

[17] = system: RKOp21 (human colon adenocarcinoma) cells; test: XTT cytotoxicity assay, RKOp21 cells; type: cell-based; conditions: Homo sapiens; 31.6 μM, second set of experiments; read-out: RKOp21 % INH [31.6 μM]
How it was run: as §9

[18] = system: Moraxella catarrhalis DMS 11994 (ATCC 43617); test: Anti-bacterial bouillon microdilution assay (MIC), bacterium D; type: cell-based; conditions: ATCC43617, 24 h
Procedure: (§10) Selected compounds of the invention were tested in a bouillon microdilution assay method according to the DIN 58940 (www.din.de) guidelines for determination of susceptibility of bacterial strains with regard to cell growth inhibition. The assay method quantifies bacterial cell growth which corresponds to the turbidity of the liquid culture medium by photometric measurement carried out at 595 nm.
(§11) The method of MIC determination was performed according to DIN 58940-5. The volumina were adapted according to the microdilution method as described in DIN 58940-7 guideline.
(§12) Dependent on water solubility, compounds of the invention were dissolved either in water or ethanol in a concentration of 10 mg/ml. Subsequently, the stock was further diluted in water to a concentration of 512 μg/ml. The following serial dilutions (factor 2) were performed in water resulting in the following […] testing concentrations: 256 μg/ml, 128 μg/ml, 64 μg/ml, 32 μg/ml, 16 μg/ml, 8 μg/ml, 4 μg/ml, 2 μg/ml, 1 μg/ml, 0.5 μg/ml, 0.25 μg/ml and 0.125 μg/ml. Diluted compounds of the invention were transferred in 100 μl volume to the microtiter plate wells.
(§13) Pre-cultures of bacteria were grown in appropriate liquid media (refer to ATCC webpage, www.atcc.org) and afterwards were inoculated in corresponding liquid medium. 100 μl of the inoculums [adjusted to an amount of app. 1×10^6 microorganisms per ml (range of 10^5-10^8 microorganisms per ml)] were added to each of the testing compound concentrations and cultivated under the appropriate conditions.
(§14) Before and after incubation, bacterial growth was determined by photometric analysis against a positive control containing growing bacteria without compound and a sterile/negative control containing only the medium.

[19] = system: PC3, RKOp21 and SKOV-3 cell lines; test: XTT cytotoxicity assay, mean over all three cell lines; type: cell-based, human; conditions: mean value over all three cell lines
Procedure: Following 2 days of continuous drug exposure 50 μl of freshly prepared XTT-PMS solution {2% 0.386 mg/ml PMS (N-Methyl Dibenzopyrazine Methylsulphate; Sigma, Cat. No. […] Serva, Cat. No. 38450) in RPMI 1640 medium without phenol red} was added to the wells. To measure the proportion of living cells, the cells were incubated for 3 h with XTT-PMS reagent at 37° C., 5% CO2, humidified atmosphere allowing to form the formazan salt. […] Inhibition curves were generated and IC50 values calculated by using GraphPad Prism. In the following table 7 cytotoxicity results (% inhibition of cell growth) obtained in the second set of experiments for selected compounds of the invention are presented in comparison to examples of the prior art (perifosine, miltefosine). The results presented are individual values for the respective cell line as well as the mean value over all three cell lines tested.

[20] = system: Bacteroides fragilis DSM 2151 (ATCC 25285); test: Anti-bacterial bouillon microdilution assay (MIC), bacterium E; type: cell-based; conditions: anaerob, 24 h
Procedure: as §10, §11, §12, §13, §14

## CCCCCCCCCCCCCCCCCCOP(=O)([O-])OC1CC[N+](CC)(CC)CC1 [Compound 5, Phosphoric acid 1,1-diethyl-piperidin-4-yl ester octadecyl ester]
[1]
  ED50 (μg/mL), protozoon A: 1.43 µg/mL (≈ 2.92 µM)
[2]
  MIC: 2 µg/mL (≈ 4.08 µM)
[3]
  MIC: 0.75 µg/mL (≈ 1.53 µM)
[4]
  MIC: 3 µg/mL (≈ 6.13 µM)
[5]
  MIC: 1.5 µg/mL (≈ 3.06 µM)
[6]
  MIC: 24 µg/mL (≈ 49 µM)
[7]
  ED50 (μg/mL), protozoon C: 21.26 µg/mL (≈ 43.4 µM)
[8]
  MIC: 8 µg/mL (≈ 16.3 µM)
[9]
  ED50 (μg/mL), protozoon B: 14.20 µg/mL (≈ 29 µM)
[10]
  ED50 (μg/mL), protozoon D: 16.31 µg/mL (≈ 33.3 µM)
[11]
  MIC: 6 µg/mL (≈ 12.3 µM)
[12]
  MIC: 2 µg/mL (≈ 4.08 µM)
[13]
  MIC: 2 µg/mL (≈ 4.08 µM)
[14]
  MIC: 2 µg/mL (≈ 4.08 µM)

## CCCCCCCCCCCCCCCCOP(=O)([O-])OCC[N+]1(C)C=CC(C(=O)OCC)CC1 (centres unmarked) [Compound 266]
[15]
  inhibition at 31.6 µM: 25.8%
[16]
  inhibition at 100 µM: 8.5%
[17]
  inhibition at 31.6 µM: 6.6%
[18]
  MIC: 8 µg/mL (≈ 15.5 µM)
[19]
  Mean % INH: 13.6%
[20]
  MIC: 128 µg/mL (≈ 247 µM)

— patent US20070167408A1, “NOVEL ALKYL PHOSPHOLIPID DERIVATIVES WITH REDUCED CYTOTOXICITY AND USES THEREOF” (ZENTARIS GmbH, priority 2005, published 2007)
